Assay results: patent publication US10517889B2, “Modulators of SMAD7 expression” (Ionis Pharmaceuticals, Inc., priority 2017, dated 2019)
Strand notation (5' to 3'): a small letter for the sugar, then the base; units joined by * are phosphorothioate-linked, units joined directly phosphodiester-linked; [ ] holds rarer units or linkages, { } end groups; capitals alone tell only the bases. k = constrained ethyl (cEt); [5mC] = 5-methylcytosine; d = 2'-deoxy (DNA)

Test system: human SMAD7 mRNA
Assay: Antisense inhibition of human SMAD7 mRNA expression in Hep3B cells by 3-10-3 cEt gapmers, 10,000 nM, electroporation (Example 2)
Assay type: cell-based
Settings: approximately 24 hours
Method in brief: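 Hep3B cells (20,000/well) were electroporated with 10,000 nM 3-10-3 cEt gapmer (16-mer, phosphorothioate, 5-methylcytosines) and harvested after about 24 h. SMAD7 mRNA quantified by RT-qPCR with primer probe set RTS5062, normalized to total RNA by RiboGreen; percent inhibition relative to untreated cells.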

[1] = Hep3B cells, electroporation with 10,000 nM antisense oligonucleotide, SMAD7 mRNA by RT-PCR (RTS5062), relative to untreated control cells
[2] = Hep3B cells, electroporation with 10,000 nM antisense oligonucleotide, RTS5062, percent inhibition of SMAD7 mRNA relative to untreated control cells
[3] = Hep3B cells, electroporation with 10,000 nM antisense oligonucleotide, primer probe set RTS5062, relative to untreated control cells
[4] = SMAD7 mRNA, Hep3B cells, electroporation with 10,000 nM antisense oligonucleotide, primer probe set RTS5062, relative to untreated control cells
[5] = Hep3B cells, electroporation, 10,000 nM antisense oligonucleotide, RTS5062, relative to untreated control cells
[6] = Hep3B cells, 10,000 nM antisense oligonucleotide, electroporation, RT-PCR primer probe set RTS5062, relative to untreated control cells
[7] = SMAD7 mRNA, Hep3B cells, 10,000 nM antisense oligonucleotide, electroporation, primer probe set RTS5062, relative to untreated control cells

## 830071 (kT*k[5mC]*kA*dA*dA*dG*dG*dT*dA*dA*dG*d[5mC]*d[5mC]*kA*kG*k[5mC]; antisense) [compound 830071]
[1]
  % Inhibition: 45%

## 799810 (antisense k[5mC]*kT*kT*dA*dT*dT*dG*dT*dT*dT*dT*dT*dG*kT*kT*k[5mC]) [compound 799810]
[2]
  % Inhibition: 14%

## 798932 (antisense k[5mC]*kT*k[5mC]*dA*dG*dG*dA*dG*dG*dA*dA*dA*dA*kT*kA*kT) [compound 798932]
[3]
  % inhibition of SMAD7 mRNA expression: 0%

## 799442 (antisense kG*kA*kT*dT*dT*dT*dA*dA*dA*dA*dG*dA*dG*kG*k[5mC]*k[5mC]) [compound 799442]
[3]
  % inhibition of SMAD7 mRNA expression: 0%

## 799362 (k[5mC]*kA*kT*d[5mC]*dA*dA*d[5mC]*d[5mC]*dA*dG*dT*d[5mC]*d[5mC]*kT*kA*kT; antisense) [compound 799362]
[3]
  % inhibition of SMAD7 mRNA expression: 39%

## 829968 (kA*kA*k[5mC]*d[5mC]*d[5mC]*d[5mC]*d[5mC]*dA*dG*dG*dG*dA*dA*kT*kG*k[5mC]; antisense) [compound 829968]
[4]
  % Inhibition: 30%

## 799846 (kT*k[5mC]*k[5mC]*dA*d[5mC]*dT*dA*dT*dT*d[5mC]*dT*dA*dT*kG*kA*kA; antisense) [compound 799846]
[2]
  % Inhibition: 25%

## 798952 (antisense kT*kA*kT*dT*dT*d[5mC]*dT*d[5mC]*dA*dA*dA*dG*dA*kG*k[5mC]*kG) [compound 798952]
[3]
  % inhibition of SMAD7 mRNA expression: 61%

## 799053 (antisense kA*kG*k[5mC]*d[5mC]*dT*dG*dT*dG*dG*dA*d[5mC]*dA*dG*kG*k[5mC]*k[5mC]) [compound 799053]
[3]
  % Inhibition: 0%

## 799813 (antisense kA*kT*kG*d[5mC]*dA*dG*dA*d[5mC]*dA*dG*d[5mC]*dT*dA*kA*kT*k[5mC]) [compound 799813]
[5]
  % inhibition of SMAD7 mRNA expression: 16%

## 799573 (kA*kA*kT*dA*dA*dA*dA*d[5mC]*d[5mC]*dA*dT*d[5mC]*dT*kA*kA*k[5mC]; antisense) [compound 799573]
[2]
  % Inhibition: 0%

## 799874 (k[5mC]*kA*kG*dA*d[5mC]*dT*dG*dG*dA*dA*dA*dA*dG*kT*kT*kA; antisense) [compound 799874]
[6]
  % Inhibition: 0%

## 798939 (antisense kA*k[5mC]*kG*dA*d[5mC]*d[5mC]*dA*dA*dA*dG*dA*dG*dT*kT*kT*kG) [compound 798939]
[3]
  % Inhibition: 46%

## 830076 (k[5mC]*kA*k[5mC]*dA*dT*dT*d[5mC]*dA*dG*dG*dG*dT*dG*kT*k[5mC]*kA; antisense) [compound 830076]
[1]
  % Inhibition: 43%

## 799877 (kA*k[5mC]*kT*dT*dT*dA*d[5mC]*dA*dA*d[5mC]*d[5mC]*d[5mC]*dA*kA*kT*kA; antisense) [compound 799877]
[6]
  % Inhibition: 52%

## 798706 (antisense k[5mC]*kG*kG*d[5mC]*dT*dG*dT*d[5mC]*d[5mC]*dG*dT*d[5mC]*dG*k[5mC]*k[5mC]*k[5mC]) [compound 798706]
[3]
  % inhibition of SMAD7 mRNA expression: 1%

## 799155 (antisense kA*kG*kA*dA*dG*dA*dG*dT*dT*dA*dG*dG*dT*kG*kT*k[5mC]) [compound 799155]
[3]
  % Inhibition: 32%

## 830154 (antisense kG*kT*kG*d[5mC]*d[5mC]*dT*d[5mC]*dA*dG*d[5mC]*dA*dG*dT*kT*kA*kA) [compound 830154]
[1]
  % Inhibition: 48%

## 799261 (antisense kT*kT*kT*dG*d[5mC]*d[5mC]*d[5mC]*d[5mC]*dA*dA*dA*dA*d[5mC]*kT*k[5mC]*k[5mC]) [compound 799261]
[1]
  % Inhibition: 52%

## 829745 (antisense k[5mC]*kG*kG*dG*d[5mC]*dG*d[5mC]*dA*d[5mC]*dG*dG*d[5mC]*dT*k[5mC]*k[5mC]*kT) [compound 829745]
[7]
  % Inhibition: 19%

## 829915 (antisense kG*kG*kT*dA*d[5mC]*d[5mC]*dT*dT*dG*dG*dG*dT*dT*kA*kT*kG) [compound 829915]
[4]
  % Inhibition: 22%

## 799308 (antisense k[5mC]*kG*k[5mC]*dT*d[5mC]*dT*dA*dA*dA*d[5mC]*dA*dG*d[5mC]*kA*kT*kG) [compound 799308]
[5]
  % inhibition of SMAD7 mRNA expression: 47%

## 799762 (antisense kG*kT*k[5mC]*d[5mC]*dT*dA*dA*dA*dG*dA*d[5mC]*dG*dG*k[5mC]*kT*k[5mC]) [compound 799762]
[2]
  % Inhibition: 21%

## 829993 (kG*kG*k[5mC]*dA*dG*dG*dG*d[5mC]*d[5mC]*dG*d[5mC]*dG*dA*kG*kG*k[5mC]; antisense) [compound 829993]
[4]
  % Inhibition: 26%

## 829873 (antisense kT*kT*kG*dT*d[5mC]*d[5mC]*dA*dG*dT*dG*dT*dG*dG*k[5mC]*kG*kG) [compound 829873]
[4]
  % Inhibition: 52%

## 829838 (k[5mC]*k[5mC]*k[5mC]*dA*dG*dT*dA*dT*dG*d[5mC]*d[5mC]*dA*d[5mC]*k[5mC]*kA*k[5mC]; antisense) [compound 829838]
[4]
  % Inhibition: 28%

## 799682 (antisense kG*kG*kT*d[5mC]*d[5mC]*dA*dG*dG*dA*d[5mC]*dT*dG*dG*kT*k[5mC]*kT) [compound 799682]
[2]
  % Inhibition: 55%

## 798863 (kG*kG*kG*dT*dT*dG*dT*d[5mC]*d[5mC]*dA*dG*dT*dG*kT*kG*kG; antisense) [compound 798863]
[1]
  % Inhibition: 41%

## 799654 (antisense kG*k[5mC]*kT*dG*dA*dA*dT*dA*dA*d[5mC]*d[5mC]*dT*dA*k[5mC]*kA*kA) [compound 799654]
[5]
  % inhibition of SMAD7 mRNA expression: 22%

## 799187 (antisense k[5mC]*kT*kT*d[5mC]*dT*d[5mC]*dT*dT*dG*dT*dT*d[5mC]*dA*kT*kT*kT) [compound 799187]
[3]
  % inhibition of SMAD7 mRNA expression: 17%

## 790623 (kG*k[5mC]*kA*dT*dT*dT*dA*dT*dA*dT*dT*dA*dA*kA*kG*k[5mC]; antisense) [compound 790623]
[3]
  % inhibition of SMAD7 mRNA expression: 0%

## 799785 (k[5mC]*kT*k[5mC]*d[5mC]*dA*dG*dG*dT*dA*dG*dA*dG*dG*k[5mC]*kA*kA; antisense) [compound 799785]
[2]
  % Inhibition: 0%

## 799492 (antisense kA*kA*kA*d[5mC]*dA*dA*dT*dA*dG*dA*dG*dG*d[5mC]*kA*kG*kG) [compound 799492]
[1]
  % Inhibition: 58%

## 799149 (antisense kG*kG*kA*dT*dG*dG*dT*dA*d[5mC]*d[5mC]*dT*dT*dG*kG*kG*kT) [compound 799149]
[3]
  % inhibition of SMAD7 mRNA expression: 46%

## 799822 (antisense k[5mC]*kA*k[5mC]*dG*dA*dT*d[5mC]*d[5mC]*dT*dG*dG*dG*d[5mC]*kT*k[5mC]*kT) [compound 799822]
[2]
  % Inhibition: 0%

## 798919 (kT*kG*k[5mC]*dT*d[5mC]*dA*dG*d[5mC]*dT*d[5mC]*dA*d[5mC]*dG*k[5mC]*kT*k[5mC]; antisense) [compound 798919]
[1]
  % Inhibition: 45%

## 798821 (kA*kG*k[5mC]*d[5mC]*dT*d[5mC]*d[5mC]*d[5mC]*d[5mC]*dA*d[5mC]*dT*d[5mC]*kT*k[5mC]*kG; antisense) [compound 798821]
[6]
  % Inhibition: 32%

## 798661 (kG*kG*k[5mC]*dT*dG*d[5mC]*d[5mC]*d[5mC]*d[5mC]*dA*d[5mC]*d[5mC]*d[5mC]*k[5mC]*kG*k[5mC]; antisense) [compound 798661]
[3]
  % inhibition of SMAD7 mRNA expression: 52%

## 798909 (kA*k[5mC]*kG*d[5mC]*dG*dG*d[5mC]*dT*dA*d[5mC]*d[5mC]*dG*dG*k[5mC]*kT*kG; antisense) [compound 798909]
[6]
  % Inhibition: 42%

## 830199 (antisense kA*kA*kG*dG*d[5mC]*dT*dA*d[5mC]*dA*d[5mC]*d[5mC]*dA*dA*kA*kG*kA) [compound 830199]
[1]
  % Inhibition: 37%

## 829996 (kT*kT*kT*dG*dT*d[5mC]*dT*dT*dA*dG*d[5mC]*dT*dG*kT*kG*kG; antisense) [compound 829996]
[4]
  % Inhibition: 54%

## 798941 (antisense kA*kA*kA*dA*dA*dA*dA*d[5mC]*dG*dA*d[5mC]*d[5mC]*dA*kA*kA*kG) [compound 798941]
[3]
  % Inhibition: 40%

## 830101 (kG*k[5mC]*k[5mC]*d[5mC]*dG*d[5mC]*dT*d[5mC]*dT*d[5mC]*dA*dG*d[5mC]*k[5mC]*kA*kG; antisense) [compound 830101]
[1]
  % Inhibition: 46%

## 798680 (antisense k[5mC]*kA*kT*dG*dA*d[5mC]*d[5mC]*dT*d[5mC]*d[5mC]*dG*d[5mC]*dA*k[5mC]*kA*k[5mC]) [compound 798680]
[1]
  % Inhibition: 31%

## 799770 (kG*kT*kT*dT*d[5mC]*d[5mC]*dA*dA*dG*dG*d[5mC]*d[5mC]*dG*kG*k[5mC]*kG; antisense) [compound 799770]
[2]
  % Inhibition: 50%

## 772765 (kG*kA*kT*dT*dG*dG*d[5mC]*dA*dG*dG*dT*dT*dA*kA*kT*k[5mC]; antisense) [compound 772765]
[7]
  % Inhibition: 35%
